Series [1] has as its system C57BL/6J mouse right lower limb gastrocnemius. Nature of the series: DNA mutation introduction efficiency using mRosa26 gRNA (T7E1 assay) after local administration. Type of series: in vivo. The note with it: Example 6; administration solution 2: 25 mM or 250 mM 2′-deoxycytidine, 6-phospho-D-gluconic acid, N-carbamyl-L-aspartic acid or 2-deoxy-D-glucose-6-phosphate, 533 mM sodium chloride; 50 μL once; Dunnett's test; FIG. 10. The protocol:
Cas9 protein (20 μg), mRosa26 gRNA (5 μg), 10×PBS (5 μL) and a 2.0 M aqueous 2′-deoxycytidine solution (6.25 μL) were mixed so as to obtain an aqueous solution having final concentrations of 400 ng/μL Cas9 protein, 100 ng/μL mRosa26 gRNA, 533 mM sodium chloride and 250 mM 2′-deoxycytidine. The concentration of the resultant solution was adjusted to be 533 mM with a 5 M aqueous sodium chloride solution, diluted with UltraPure DNase/RNase-Free Distilled Water up to a liquid volume of 50 μL and incubated at normal temperature for 15 minutes. […] The Cas9 protein herein was subjected to buffer replacement with 250 mM sodium chloride by use of Amicon® Ultra 2 mL Centrifugal Filters and then put in use.
Cas9 protein (40 μg), mRosa26 gRNA (10 μg), 10×PBS (5 μL), and a […] compound stock solution (25 μL) were mixed so as to obtain final concentrations: 800 ng/μL Cas9 protein, 200 ng/μL mRosa26 gRNA, 533 mM sodium chloride and 250 mM compound. […]
To the right lower limb gastrocnemius of each of 9 weeks-old male C57BL/6J mice (CLEA Japan, Inc), administration solution 1 or administration solution 2 and PBS (50 μL) were administered. […] The resultant PCR product was purified by QIAquick PCR purification kit (QIAGEN), treated with T7 Endonuclease I (NEB) and analyzed by Agilent 4200 TapeStation (Agilent). […]
As shown in FIG. 10 and FIG. 11, to find statistical significant difference between GABA and each conditions of the compounds, Dunnett's multiple comparison test using DNA mutation introduction efficiency, Indel (%), and exon skipping efficiency, was carried out. It was determined that if P value is less than 0.05, these is a statistically significant difference. […]
A solution for transduction containing 2′-deoxycytidine as a compound (A3) and sodium chloride as the (B) salt was prepared. […] Administration solution 1 was locally administered to the mouse right lower limb gastrocnemius and the activity to cleave a target gene was evaluated. […]

The test system of series [2] is EGFP reporter cells (C2C12 cells). Put plainly: Number of HOECHST cells detected (cell viability) in the EGFP-SSA assay. The note with it: Example 1; compound 250.0 mM vs 250 mM GABA positive control on the same plate; formula (2).
Procedure: To each of the solutions, a complex of gRNA and Cas9 protein was further dissolved. Mouse myoblasts (C2C12 cells) were contacted with each of the solutions in vitro, and target gene cleavage activity and cell viability were evaluated.

Data on one compound can be found in patent US12673022B2, “Drug delivery system using solution” (Kyoto University, priority 2018, dated 2026).

With `NC(=O)N[C@@H](CC(=O)O)C(=O)O` [N-Carbamyl-L-aspartic acid], the “Genome editing efficiency (indel (%)) compared to 250 mM GABA” value in series [1] is “statistically significant results compared to GABA”. Besides, in series [2], the “Relative ratio to GABA: Number of HOECHST cells” value turned out to be 1.19.
